Results from ChEMBL document CHEMBL1133670 (J Med Chem, 2000).

Assays:
[1] = target: Protein farnesyltransferase (Homo sapiens, UniProt P49354+P49356); assay: Inhibition of purified recombinant human farnesyltransferase (FT)
[2] = tested on: Mus musculus; assay: In vivo antitumor activity (log cell kill, LCK) by subcutaneous implantation of HCT116 tumors followed by oral administration at an optimal dose of 600 mg/kg in expt. 3; assay type: functional
[3] = tested on: NIH3T3; assay: cells; details: Mus musculus
Description: Inhibition of anchorage independent growth of H-ras transformed NIH3T3 cells in Soft Agar

[4] = target: T1, Protein farnesyltransferase (Rattus norvegicus) (UniProt Q04631+Q02293); assay: Percent phenotypic reversion of H-ras transformed Rat-1 cells at 1 uM; assay type: functional, cell-based
[5] = tested on: Mus musculus; assay: In vivo antitumor activity (log cell kill, LCK) by subcutaneous implantation of HCT116 tumors followed by oral administration at an optimal dose of 700 mg/kg in expt. 1; assay type: functional
[6] = tested on: Mus musculus; assay: In vivo antitumor activity (log cell kill, LCK) by subcutaneous implantation of HCT116 tumors followed by oral administration at an optimal dose of 600 mg/kg in expt. 5; assay type: functional
[7] = tested on: Mus musculus; assay: In vivo antitumor activity (log cell kill, LCK) by subcutaneous implantation of HCT116 tumors followed by oral administration at an optimal dose of 600 mg/kg in expt. 2; assay type: functional
[8] = target: T1, Protein farnesyltransferase (Rattus norvegicus); assay: Percent phenotypic reversion of H-ras transformed Rat-1 cells at 10 uM; assay type: functional, cell-based
[9] = Maximum concentration observed in rats at an oral dose of 50 mg/kg; details: rat, in vivo
[10] = Clearance in rats following intravenous dose of 50 mg/kg; details: rat, in vivo
[11] = Half-life of compound in rats following intravenous dose of 50 mg/kg; details: rat, in vivo
[12] = in vivo; details: rat, po, 50 mg/kg
Description: Oral bioavailability observed in rats at an oral dose of 50 mg/kg

[13] = in vivo; details: rat, iv, 50 mg/kg
Description: Volume of distribution (Vss) in rats following intravenous dose of 50 mg/kg

[14] = tested on: Mus musculus; assay: In vivo antitumor activity (log cell kill, LCK) by subcutaneous implantation of HCT116 tumors followed by oral administration at an optimal dose of 600 mg/kg in mice
[15] = Oral bioavailability, based on dose-normalized AUC values in BALB/c mice; assay type: ADME, organism-based; details: mouse, in vivo
[16] = Half-life of compound in Balb/c mice following an oral dose of 90 mg/kg; details: Balb/c mouse, in vivo
[17] = tested on: Mus musculus; assay: In vivo antitumor activity (log cell kill, LCK) by subcutaneous implantation of HCT116 tumors followed by oral administration at an optimal dose of 600 mg/kg in expt. 4; assay type: functional
[18] = target: T1, Protein farnesyltransferase (Rattus norvegicus); assay: Percent phenotypic reversion of H-ras transformed Rat-1 cells at 5 uM; assay type: functional, cell-based
[19] = organism: Mus musculus; assay: Increase in lifespan reflected by relative median survival time of treated versus control groups expressed as maximum % T/C; assay type: functional

Row | Structure (SMILES) | IC50 [1] | EC50 [3] | Reversion [4] | other results
1 | CS(=O)(=O)N1Cc2cc(-c3ccccc3)ccc2N(Cc2cnc[nH]2)CC1Cc1ccccc1 (stereo not given) | 0.0545 µM |  |  | 
2 | CC(=O)N1Cc2cc(Br)ccc2N(Cc2cnc[nH]2)CC1Cc1cccc2ccccc12 (stereo not given) | 0.0545 µM |  |  | 
3 | CS(=O)(=O)N1Cc2cc(Br)ccc2N(Cc2cnc[nH]2)C[C@H]1CC1CCCCC1 | 0.0235 µM |  |  | 
4 | CS(=O)(=O)N1Cc2cc(C#N)ccc2N(Cc2c[nH]cn2)C[C@H]1Cc1ccccc1 | 0.003 µM | 0.013 µM |  | LCK [2]: 0.6
5 | CS(=O)(=O)N1Cc2cc(-c3ccccc3)ccc2N(Cc2c[nH]cn2)CC1Cc1ccccc1 (stereo not given) |  | 0.53 µM | 70% | 
6 | CS(=O)(=O)N1Cc2cc(Br)ccc2N(Cc2c[nH]cn2)C[C@H]1Cc1ccccc1 |  | 0.29 µM | 70% | LCK [5]: 1.5
7 | CN(C)CCS(=O)(=O)N1Cc2cc(C#N)ccc2N(Cc2c[nH]cn2)C[C@H]1Cc1ccccc1 | 0.00153 µM | 0.03 µM |  | LCK [6]: 1
8 | CC(=O)N1Cc2cc(Br)ccc2N(Cc2c[nH]cn2)CC1Cc1ccccc1 (stereo not given) | 0.06 µM | 0.6 µM | 30% | 
9 | CS(=O)(=O)N1Cc2cc(-c3ccncc3)ccc2N(Cc2c[nH]cn2)C[C@H]1Cc1ccccc1 | 0.016 µM | 0.04 µM |  | LCK [7]: 0.2
10 | CS(=O)(=O)N1Cc2cc(Br)ccc2N(Cc2c[nH]cn2)CC1Cc1ccccc1Cl (stereo not given) | 0.018 µM | 0.46 µM | 70% | 
11 | CC1CN(Cc2c[nH]cn2)c2ccccc2CN1C(=O)c1cccc2ccccc12 (stereo not given) | 1.1 µM |  |  | Reversion [8]: 0%
12 | CS(=O)(=O)N1Cc2cc(-c3ccccc3)ccc2N(Cc2cnc[nH]2)C[C@H]1Cc1ccncc1 | 0.383 µM |  |  | 
13 | CCOC(=O)N1Cc2cc(C#N)ccc2N(Cc2c[nH]cn2)C[C@H]1Cc1ccccc1 | 0.022 µM | 0.3 µM | 50% | 
14 | N#Cc1ccc2c(c1)CN(S(=O)(=O)c1cccs1)[C@H](Cc1ccccc1)CN2Cc1cnc[nH]1 [BMS-214662] |  |  |  | Cmax [9]: 20 µM; clearance [10]: 5.7 mL/min/kg; half-life [11]: 2.4 h; bioavailability [12]: 56%; Vd [13]: 1.4 L/kg
15 | CS(=O)(=O)N1Cc2cc(-c3ccccc3)ccc2N(Cc2c[nH]cn2)C[C@H]1Cc1cccnc1 | 0.00595 µM | 0.015 µM |  | LCK [14]: 0.1
16 | CCCS(=O)(=O)N1Cc2cc(C#N)ccc2N(Cc2cnc[nH]2)C[C@H]1Cc1ccccc1 | 0.00177 µM | 0.01 µM |  | 
17 | CS(=O)(=O)N1Cc2cc(-c3cccnc3)ccc2N(Cc2cnc[nH]2)CC1Cc1ccccc1 (stereo not given) | 0.0079 µM |  |  | 
18 | N#Cc1ccc2c(c1)CN(S(=O)(=O)c1ccccc1)[C@H](Cc1ccccc1)CN2Cc1cnc[nH]1 | 0.00177 µM | 0.01 µM |  | 
19 | CS(=O)(=O)N1Cc2cc(Br)ccc2N(Cc2cnc[nH]2)C[C@H]1Cc1ccccc1 | 0.0107 µM |  |  | bioavailability [15]: 40%; half-life [16]: 1.2 h
20 | O=C(c1cccc2ccccc12)N1Cc2ccccc2N(Cc2c[nH]cn2)CC1Cc1ccccc1 (stereo not given) | 0.276 µM |  |  | Reversion [8]: 70%

Row | Structure (SMILES) | IC50 [1] | EC50 [3] | Reversion [4] | other results
21 | O=C(c1cccc2ccccc12)N1CCN(Cc2c[nH]cn2)c2ccccc2C1 |  |  |  | Reversion [8]: 0%
22 | CS(=O)(=O)N1Cc2cc(Br)ccc2N(Cc2c[nH]cn2)CC1CNC(=O)c1ccccc1 (stereo not given) |  |  | 0% | 
23 | CN(C)S(=O)(=O)N1Cc2cc(C#N)ccc2N(Cc2c[nH]cn2)C[C@H]1Cc1ccccc1 | 0.00285 µM | 0.05 µM |  | LCK [17]: 0.2
24 | COc1ccc(CC2CN(Cc3c[nH]cn3)c3ccc(Br)cc3CN2S(C)(=O)=O)cc1 (stereo not given) | 0.101 µM |  | 0% | 
25 | O=C(c1cccc2ccccc12)N1CCN(Cc2c[nH]cn2)c2ccc(Br)cc2C1 |  |  |  | Reversion [18]: 5%
26 | CS(=O)(=O)N1Cc2cc(Br)ccc2N(Cc2cnc[nH]2)C[C@@H]1Cc1ccccc1 | 0.437 µM |  |  | 
27 | CS(=O)(=O)N1Cc2cc(-c3cccnc3)ccc2N(Cc2c[nH]cn2)CC1Cc1ccccc1 (stereo not given) |  |  | 10% | 
28 | CS(=O)(=O)N1Cc2cc(Br)ccc2N(Cc2c[nH]cn2)CC1Cc1ccccc1 (stereo not given) |  | 0.27 µM | 80% | T/C [19]: 138%
29 | CN(C)C(=O)N1Cc2cc(C#N)ccc2N(Cc2c[nH]cn2)C[C@H]1Cc1ccccc1 | 0.017 µM |  | 40% | 
30 | CS(=O)(=O)N1Cc2cc(Br)ccc2N(Cc2cnc[nH]2)CC1CCc1ccccc1 (stereo not given) | 0.045 µM |  |  | 
31 | CS(=O)(=O)N1Cc2cc(Br)ccc2N(Cc2c[nH]cn2)CC1Cc1cccc(Cl)c1 (stereo not given) | 0.024 µM |  |  | Reversion [8]: 70%
32 | O=C(c1cccc2ccccc12)N1CCN(Cc2cnc[nH]2)c2ccc(Br)cc2C1 | 0.228 µM |  |  | 
33 | CS(=O)(=O)N1Cc2cc(Br)ccc2N(Cc2cnc[nH]2)CC1Cc1ccccc1 (stereo not given) | 0.03 µM |  |  | 
34 | CC(=O)N1Cc2ccccc2N(Cc2c[nH]cn2)CC1Cc1ccccc1 (stereo not given) | 1.3 µM |  |  | 
35 | CC(=O)N1Cc2cc(Br)ccc2N(Cc2c[nH]cn2)CC1Cc1cccc2ccccc12 (stereo not given) |  |  | 5% | 
36 | CS(=O)(=O)N1Cc2cc(Br)ccc2N(Cc2c[nH]cn2)C[C@H]1CC1CCCCC1 |  |  |  | Reversion [8]: 90%
37 | CC(=O)N1Cc2cc(C#N)ccc2N(Cc2c[nH]cn2)C[C@H]1Cc1ccccc1 | 0.00875 µM | 0.1 µM |  | 
38 | CS(=O)(=O)N1Cc2cc(Br)ccc2N(Cc2c[nH]cn2)CC1CCc1ccccc1 (stereo not given) |  | 0.4 µM | 70% | 
39 | CS(=O)(=O)N1Cc2cc(Br)ccc2N(Cc2cnc[nH]2)CC1CNC(=O)c1ccccc1 (stereo not given) | 0.086 µM |  |  | 
